Data: US8846933B2, “N-link hydroxamic acid derivatives useful as antibacterial agents” (Pfizer Inc., priority 2009, dated 2014)

Assays:
Type in all cases: cell-based
Settings in all cases: unit assumed
[1] = tested on: Escherichia coli EC-1: VOGEL, mouse virulent; assay: MIC determination (CLSI), strain EC-1
Summary of the method: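 The mouse-virulent VOGEL isolate of E. coli, EC-1, served as test organism. Minimum inhibitory concentration was measured by CLSI dilution methodology (M7-A7; M100-S18 standards).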

[2] = tested on: Acinetobacter baumanii/haemolyticus: Multidrug-resistant clinical isolate (AB-3167); assay: MIC determination (CLSI), strain AB-3167
Description: The in vitro antibacterial activity of compounds described in the Examples was evaluated by minimum inhibitory concentration (MIC) testing according to Clinical and Laboratory Standards Institute (CLSI, formerly NCCLS) guidelines. See: Clinical and Laboratory Standards Institute. Methods for Dilution Antimicrobial Susceptibility Tests for Bacteria that Grow Aerobically; Approved Standard-Seventh Edition. CLSI document M7-A7 [ISBN 1-56238-587-9]. Clinical and Laboratory Standards Institute, 940 West Valley Road, Suite 1400, Wayne, Pa. 19087-1898 USA, 2006; also Clinical and Laboratory Standards Institute. Performance Standards for Antimicrobial Susceptibility Testing; Eighteenth Informational Supplement. CLSI document M100-S18 [ISBN1-56238-653-0].Clinical and Laboratory Standards Institute.
The following bacterial strains were used in these MIC determinations:
2) Acinetobacter baumanii/haemolyticus: Multidrug-resistant clinical isolate labeled as AB-3167 in Tables 4 and 5;

[3] = tested on: Pseudomonas aeruginosa UI-18: Wild-type (PA-7); assay: MIC determination (CLSI), strain PA-7
Summary of the method: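 Strain tested was P. aeruginosa UI-18, a wild-type isolate labelled PA-7. Minimum inhibitory concentrations followed CLSI dilution methodology for aerobically growing bacteria (M7-A7, M100-S18).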

[4] = Escherichia coli EC-1, VOGEL, mouse virulent
[5] = Pseudomonas aeruginosa UI-18, wild-type

## CC(CCn1ccc(OCc2ccccc2)cc1=O)(C(=O)NO)S(C)(=O)=O (stereo not shown) [Example 51, 4-[4-(Benzyloxy)-2-oxopyridin-1(2H)-yl]-N-hydroxy-2-methyl-2-(methylsulfonyl)butanamide]
[1]; [4]
  EC-1 (MIC): 16 µg/mL
[2]
  AB-3167 (MIC): > 64 µg/mL
[3]; [5]
  PA-7 (MIC): 16 µg/mL

## Cn1nccc1-c1ccc(-c2ccn(CC[C@](C)(C(=O)NO)S(C)(=O)=O)c(=O)c2)cc1 [Example 24, (2R)-N-hydroxy-2-methyl-4-{4-[4-(1-methyl-1H-pyrazol-5-yl)phenyl]-2-oxopyridin-1(2H)-yl}-2-(methylsulfonyl)butanamide]
[1]; [4]
  EC-1 (MIC): 1 µg/mL
[2]
  AB-3167 (MIC): > 64 µg/mL
[3]; [5]
  PA-7 (MIC): 2 µg/mL

## C[C@@](CCn1ccc(-c2ccc([C@H]3C[C@H](O)C3)cc2)cc1=O)(C(=O)NO)S(C)(=O)=O [Example 6, (2R)-N-hydroxy-4-{4-[4-(trans-3-hydroxycyclobutyl)phenyl]-2-oxopyridin-1(2H)-yl}-2-methyl-2-(methylsulfonyl)butanamide]
[1]; [4]
  EC-1 (MIC): 4 µg/mL
[2]
  AB-3167 (MIC): > 64 µg/mL
[3]; [5]
  PA-7 (MIC): 4 µg/mL

## CO/N=C(\C)c1ccc(-c2ccn(CCC(C)(C(=O)NO)S(C)(=O)=O)c(=O)c2)cc1 (stereo not shown) [Example 62, N-Hydroxy-4-[4-{4-[(1E)-N-methoxyethanimidoyl]phenyl}-2-oxopyridin-1(2H)-yl]-2-methyl-2-(methylsulfonyl)butanamide]
[1]; [4]
  EC-1 (MIC): 0.5 µg/mL
[2]
  AB-3167 (MIC): > 64 µg/mL
[3]; [5]
  PA-7 (MIC): 4 µg/mL

## C[C@@](CCn1ccc(C2=CCN(c3ncccn3)CC2)cc1=O)(C(=O)NO)S(C)(=O)=O [Example 67, (2R)-N-Hydroxy-2-methyl-2-(methylsulfonyl)-4-(2-oxo-1′-pyrimidin-2-yl-1′,2′,3′,6′-tetrahydro-4,4′-bipyridin-1(2H)-yl)butanamide]
[1]; [4]
  EC-1 (MIC): 8 µg/mL
[2]
  AB-3167 (MIC): > 64 µg/mL
[3]; [5]
  PA-7 (MIC): 8 µg/mL

## C[C@@](CCn1ccc(-c2ccc(-c3ccon3)cc2)cc1=O)(C(=O)NO)S(C)(=O)=O [Example 68-F, (2R)-N-hydroxy-4-[4-(4-isoxazol-3-ylphenyl)-2-oxopyridin-1(2H)-yl]-2-methyl-2-(methylsulfonyl)butanamide]
[1]; [4]
  EC-1 (MIC): 0.25 µg/mL
[2]
  AB-3167 (MIC): > 64 µg/mL
[3]; [5]
  PA-7 (MIC): 0.5 µg/mL

## Cc1cccc(-c2ccn(CC[C@](C)(C(=O)NO)S(C)(=O)=O)c(=O)c2)c1Cl [Example 68-E, (2R)-4-[4-(2-chloro-3-methylphenyl)-2-oxopyridin-1(2H)-yl]-N-hydroxy-2-methyl-2-(methylsulfonyl)butanamide]
[1]; [4]
  EC-1 (MIC): 0.25 µg/mL
[2]
  AB-3167 (MIC): 64 µg/mL
[3]; [5]
  PA-7 (MIC): 0.5 µg/mL

## CC(CCn1ccc(OCCc2ccccc2)cc1=O)(C(=O)NO)S(C)(=O)=O (stereo not shown) [Example 68-U, N-hydroxy-2-methyl-2-(methylsulfonyl)-4-[2-oxo-4-(2-phenylethoxy)pyridin-1(2H)-yl]butanamide]
[1]; [4]
  EC-1 (MIC): 32 µg/mL
[2]
  AB-3167 (MIC): > 64 µg/mL
[3]; [5]
  PA-7 (MIC): 64 µg/mL

## C[C@@](CCn1ccc(-c2ccc(C3CCOCC3)cc2)cc1=O)(C(=O)NO)S(C)(=O)=O [Example 47, (2R)-N-hydroxy-2-methyl-2-(methylsulfonyl)-4-{2-oxo-4-[4-(tetrahydro-2H-pyran-4-yl)phenyl]pyridin-1(2H)-yl}butanamide]
[1]; [4]
  EC-1 (MIC): 0.5 µg/mL
[2]
  AB-3167 (MIC): > 64 µg/mL
[3]; [5]
  PA-7 (MIC): 2 µg/mL

## C[C@H](O)c1ccc2cc(-c3ccn(CC[C@](C)(C(=O)NO)S(C)(=O)=O)c(=O)c3)ccc2c1 [Example 68-N, (2R)-N-hydroxy-4-[4-{6-[(1S)-1-hydroxyethyl]-2-naphthyl}-2-oxopyridin-1(2H)-yl]-2-methyl-2-(methylsulfonyl)butanamide]
[1]; [4]
  EC-1 (MIC): 0.5 µg/mL
[2]
  AB-3167 (MIC): > 64 µg/mL
[3]; [5]
  PA-7 (MIC): 2 µg/mL

## CCC(=O)c1ccc(-c2ccn(CC[C@](C)(C(=O)NO)S(C)(=O)=O)c(=O)c2)cc1 [Example 68-G, (2R)-N-hydroxy-2-methyl-2-(methylsulfonyl)-4-[2-oxo-4-(4-propionylphenyl)pyridin-1(2H)-yl]butanamide]
[1]; [4]
  EC-1 (MIC): 0.5 µg/mL
[2]
  AB-3167 (MIC): > 64 µg/mL
[3]; [5]
  PA-7 (MIC): 1 µg/mL

## C[C@@](CCn1ccc(-c2c(F)ccc(F)c2F)cc1=O)(C(=O)NO)S(C)(=O)=O [Example 22, (2R)-N-hydroxy-2-methyl-2-(methylsulfonyl)-4-[2-oxo-4-(2,3,6-trifluorophenyl)pyridin-1(2H)-yl]butanamide]
[1]; [4]
  EC-1 (MIC): 2 µg/mL
[2]
  AB-3167 (MIC): > 64 µg/mL
[3]; [5]
  PA-7 (MIC): 4 µg/mL

## C[C@@](CCn1ccc(-c2ccc(Cl)c(F)c2F)cc1=O)(C(=O)NO)S(C)(=O)=O [Example 49, (2R)-4-[4-(4-chloro-2,3-difluorophenyl)-2-oxopyridin-1(2H)-yl]-N-hydroxy-2-methyl-2-(methylsulfonyl)butanamide]
[1]; [4]
  EC-1 (MIC): 0.125 µg/mL
[2]
  AB-3167 (MIC): > 64 µg/mL
[3]; [5]
  PA-7 (MIC): 0.25 µg/mL

## C[C@@](CCn1ccc(-c2cccc(F)c2)cc1=O)(C(=O)NO)S(C)(=O)=O [Example 42, (2R)-4-[4-(3-fluorophenyl)-2-oxopyridin-1(2H)-yl]-N-hydroxy-2-methyl-2-(methylsulfonyl)butanamide]
[1]; [4]
  EC-1 (MIC): 2 µg/mL
[2]
  AB-3167 (MIC): > 64 µg/mL
[3]; [5]
  PA-7 (MIC): 1 µg/mL

## C[C@@](CCn1ccc(-c2ccc(-n3nccn3)cc2)cc1=O)(C(=O)NO)S(C)(=O)=O [Example 40, (2R)-N-hydroxy-2-methyl-2-(methylsulfonyl)-4-{2-oxo-4-[4-(2H-1,2,3-triazol-2-yl)phenyl]pyridin-1(2H)-yl}butanamide]
[1]; [4]
  EC-1 (MIC): 0.03 µg/mL
[2]
  AB-3167 (MIC): > 64 µg/mL
[3]; [5]
  PA-7 (MIC): 0.25 µg/mL

## C[C@@](CCn1ccc(-c2ccc(-n3cccn3)cc2)cc1=O)(C(=O)NO)S(C)(=O)=O [Example 1, (2R)-N-hydroxy-2-methyl-2-(methylsulfonyl)-4-{2-oxo-4-[4-(1H-pyrazol-1-yl)phenyl]pyridin-1(2H)-yl}butanamide]
[1]; [4]
  EC-1 (MIC): 0.5 µg/mL
[2]
  AB-3167 (MIC): > 64 µg/mL
[3]; [5]
  PA-7 (MIC): 2 µg/mL

## C[C@@](CCn1ccc(-c2ccc(OCC3CC(CO)C3)cc2)cc1=O)(C(=O)NO)S(C)(=O)=O (stereo partly drawn) [Example 10-D, (2R)-N-hydroxy-4-[4-(4-{[3-(hydroxymethyl)cyclobutyl]methoxy}phenyl)-2-oxopyridin-1(2H)-yl]-2-methyl-2-(methylsulfonyl)butanamide]
[1]; [4]
  EC-1 (MIC): 0.25 µg/mL
[2]
  AB-3167 (MIC): > 64 µg/mL
[3]; [5]
  PA-7 (MIC): 1 µg/mL

## C[C@@](CCn1ccc(-c2ccc(-c3ncccn3)cc2)cc1=O)(C(=O)NO)S(C)(=O)=O [Example 39, (2R)-N-hydroxy-2-methyl-2-(methylsulfonyl)-4-[2-oxo-4-(4-pyrimidin-2-ylphenyl)pyridin-1(2H)-yl]butanamide]
[1]; [4]
  EC-1 (MIC): 0.5 µg/mL
[2]
  AB-3167 (MIC): > 64 µg/mL
[3]; [5]
  PA-7 (MIC): 2 µg/mL

## Cn1c(-c2ccn(CCC(C)(C(=O)NO)S(C)(=O)=O)c(=O)c2)cc2ccccc21 (stereo not shown) [Example 68-R, N-hydroxy-2-methyl-4-[4-(1-methyl-1H-indol-2-yl)-2-oxopyridin-1(2H)-yl]-2-(methylsulfonyl)butanamide]
[1]; [4]
  EC-1 (MIC): 4 µg/mL
[2]
  AB-3167 (MIC): > 64 µg/mL
[3]; [5]
  PA-7 (MIC): 8 µg/mL

## C[C@@](CCn1ccc(-c2ccc(OC(F)(F)[C@H]3CC[C@H](O)CC3)cc2)cc1=O)(C(=O)NO)S(C)(=O)=O [Example 60, (2R)-4-[4-{4-[difluoro(trans-4-hydroxycyclohexyl)methoxy]phenyl}-2-oxopyridin-1(2H)-yl]-N-hydroxy-2-methyl-2-(methylsulfonyl)butanamide]
[1]; [4]
  EC-1 (MIC): 0.125 µg/mL
[2]
  AB-3167 (MIC): 32 µg/mL
[3]; [5]
  PA-7 (MIC): 1 µg/mL

## CCC(CCn1ccc(-c2ccccc2)cc1=O)(C(=O)NO)S(C)(=O)=O (stereo not shown) [Example 54, 2-Ethyl-N-hydroxy-2-(methylsulfonyl)-4-(2-oxo-4-phenylpyridin-1(2H)-yl)butanamide]
[1]; [4]
  EC-1 (MIC): 16 µg/mL
[2]
  AB-3167 (MIC): 64 µg/mL
[3]; [5]
  PA-7 (MIC): 16 µg/mL

## COc1ccc2cc(-c3ccn(CCC(C)(C(=O)NO)S(C)(=O)=O)c(=O)c3)ccc2c1 (racemic) [Example 34, (+/−)-N-hydroxy-4-[4-(6-methoxy-2-naphthyl)-2-oxopyridin-1(2H)-yl]-2-methyl-2-(methylsulfonyl)butanamide]
[1]; [4]
  EC-1 (MIC): < 0.06 µg/mL
[2]
  AB-3167 (MIC): 8 µg/mL
[3]; [5]
  PA-7 (MIC): 1 µg/mL

## C[C@@](CCn1ccc(-c2ccc(OC[C@H]3CC[C@@H](O)CC3)cc2F)cc1=O)(C(=O)NO)S(C)(=O)=O [Example 10-L, (2R)-4-[4-{2-fluoro-4-[(cis-4-hydroxycyclohexyl)methoxy]phenyl}-2-oxopyridin-1(2H)-yl]-N-hydroxy-2-methyl-2-(methylsulfonyl)butanamide]
[1]; [4]
  EC-1 (MIC): 0.25 µg/mL
[2]
  AB-3167 (MIC): > 64 µg/mL
[3]; [5]
  PA-7 (MIC): 1 µg/mL

## C[C@@](CCn1ccc(-c2ccc(Oc3noc4ccccc34)cc2)cc1=O)(C(=O)NO)S(C)(=O)=O [Example 450, (2R)-4-{4-[4-(1,2-benzisoxazol-3-yloxy)phenyl]-2-oxopyridin-1(2H)-yl}-N-hydroxy-2-methyl-2-(methylsulfonyl)butanamide]
[1]; strain EC-1
  EC-1 (MIC): 0.06 µg/mL
[3]; strain PA-7
  PA-7 (MIC): 2 µg/mL

## CC(CCn1ccc(-c2cccc(C#N)c2)cc1=O)(C(=O)NO)S(C)(=O)=O (stereo not shown) [Example 169, 4-[4-(3-cyanophenyl)-2-oxopyridin-1(2H)-yl]-N-hydroxy-2-methyl-2-(methylsulfonyl)butanamide]
[1]; strain EC-1, generated in the same manner as in Table 4
  EC-1 (MIC): > 64 µg/mL
[3]; strain PA-7, generated in the same manner as in Table 4
  PA-7 (MIC): 64 µg/mL
